{"source": "patent US11040981B2", "about": "“Pyrrolotriazine compounds and methods of inhibiting TAM kinases” (Syros Pharmaceuticals, Inc., priority 2017, dated 2021)", "key": {"[1]": {"molecular_target": "T1, AXL (Homo sapiens, UniProt P30530)", "T1 sequence (P30530 26-894)": "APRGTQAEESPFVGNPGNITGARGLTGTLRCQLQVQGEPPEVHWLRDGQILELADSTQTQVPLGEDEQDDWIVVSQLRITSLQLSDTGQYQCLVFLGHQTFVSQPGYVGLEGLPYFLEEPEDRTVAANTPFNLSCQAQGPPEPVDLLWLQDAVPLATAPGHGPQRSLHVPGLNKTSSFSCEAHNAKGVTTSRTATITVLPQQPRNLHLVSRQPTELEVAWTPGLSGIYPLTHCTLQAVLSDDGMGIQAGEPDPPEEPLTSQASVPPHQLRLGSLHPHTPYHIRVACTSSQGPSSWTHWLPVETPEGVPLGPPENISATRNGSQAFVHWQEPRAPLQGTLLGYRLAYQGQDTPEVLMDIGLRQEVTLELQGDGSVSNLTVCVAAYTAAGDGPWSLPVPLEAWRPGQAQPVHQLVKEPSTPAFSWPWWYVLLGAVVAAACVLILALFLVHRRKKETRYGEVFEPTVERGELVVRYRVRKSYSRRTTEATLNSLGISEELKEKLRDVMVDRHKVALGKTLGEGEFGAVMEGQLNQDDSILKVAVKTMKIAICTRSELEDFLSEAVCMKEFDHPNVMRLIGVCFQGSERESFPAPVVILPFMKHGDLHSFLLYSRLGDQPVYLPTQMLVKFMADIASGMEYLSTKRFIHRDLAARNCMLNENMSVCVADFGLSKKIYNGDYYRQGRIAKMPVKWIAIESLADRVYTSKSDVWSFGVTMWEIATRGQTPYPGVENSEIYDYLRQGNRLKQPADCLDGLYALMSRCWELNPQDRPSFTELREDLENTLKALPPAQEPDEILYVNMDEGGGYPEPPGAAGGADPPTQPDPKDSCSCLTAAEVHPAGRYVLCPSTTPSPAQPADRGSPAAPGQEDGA", "test": "TR-FRET kinase activity assay, AXL", "type": "biochemical", "details": "ATP at Km, 60 minutes", "method_in_brief": "(§1)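 Enzyme + labelled peptide + cpd premixed; ATP at per-enzyme Km starts rxn. 60 min RT, HEPES pH 7.5/MgCl2/EGTA/Brij 35/DTT buffer. Stop 12.5 mM EDTA, Eu phospho-Ab 30 min dark, TR-FRET read → IC50.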"}, "[2]": {"molecular_target": "T2, TYRO3 (Homo sapiens, UniProt Q06418)", "T2 sequence (Q06418 41-890)": "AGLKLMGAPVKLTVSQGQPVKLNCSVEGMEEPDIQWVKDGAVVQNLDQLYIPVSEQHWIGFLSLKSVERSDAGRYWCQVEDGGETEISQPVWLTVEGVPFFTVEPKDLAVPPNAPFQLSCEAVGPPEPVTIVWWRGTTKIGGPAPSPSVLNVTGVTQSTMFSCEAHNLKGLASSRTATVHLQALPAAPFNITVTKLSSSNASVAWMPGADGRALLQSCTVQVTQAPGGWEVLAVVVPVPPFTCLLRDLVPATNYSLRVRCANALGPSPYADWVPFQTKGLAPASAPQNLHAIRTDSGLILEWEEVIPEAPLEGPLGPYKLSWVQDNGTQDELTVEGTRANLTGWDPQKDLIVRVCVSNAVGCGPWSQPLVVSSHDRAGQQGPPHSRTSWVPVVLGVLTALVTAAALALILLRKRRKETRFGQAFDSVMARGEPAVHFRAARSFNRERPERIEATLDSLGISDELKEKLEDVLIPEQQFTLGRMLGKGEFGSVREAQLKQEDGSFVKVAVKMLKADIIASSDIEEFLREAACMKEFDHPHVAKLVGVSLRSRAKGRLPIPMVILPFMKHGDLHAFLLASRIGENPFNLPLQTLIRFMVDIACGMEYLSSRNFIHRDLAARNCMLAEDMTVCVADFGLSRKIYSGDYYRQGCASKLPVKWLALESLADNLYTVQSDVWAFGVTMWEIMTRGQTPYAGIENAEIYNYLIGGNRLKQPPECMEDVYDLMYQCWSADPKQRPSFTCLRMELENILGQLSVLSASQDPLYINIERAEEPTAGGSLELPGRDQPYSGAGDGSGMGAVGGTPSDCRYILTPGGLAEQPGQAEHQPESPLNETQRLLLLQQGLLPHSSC", "test": "TR-FRET kinase activity assay, TYRO3", "type": "biochemical", "details": "ATP at Km, 60 minutes", "method_in_brief": "as §1"}}}
{"smiles": "COC[C@H](C)Nc1ncc2c(-c3cnn([C@@H]4CO[C@H]5OCC[C@H]54)c3)cc([C@H]3CC[C@H](O)CC3)n2n1", "note": "[Compound 422]", "values": [{"measurement": "IC50", "setting": "[1]", "result": "≤ 100", "unit": "nM"}, {"measurement": "IC50", "setting": "[2]", "result": "≤ 100", "unit": "nM"}]}
